Measured values: patent US20240116985A1, “STAPLED PEPTIDES AND METHODS THEREOF” (priority 2020, published 2024)

Target: T1, full-length beta-Catenin (Uniprot ID P35222) (Homo sapiens, UniProt P35222)
T1 construct: 10 nM full-length beta-Catenin (Uniprot ID P35222)
T1 sequence (P35222 1-781): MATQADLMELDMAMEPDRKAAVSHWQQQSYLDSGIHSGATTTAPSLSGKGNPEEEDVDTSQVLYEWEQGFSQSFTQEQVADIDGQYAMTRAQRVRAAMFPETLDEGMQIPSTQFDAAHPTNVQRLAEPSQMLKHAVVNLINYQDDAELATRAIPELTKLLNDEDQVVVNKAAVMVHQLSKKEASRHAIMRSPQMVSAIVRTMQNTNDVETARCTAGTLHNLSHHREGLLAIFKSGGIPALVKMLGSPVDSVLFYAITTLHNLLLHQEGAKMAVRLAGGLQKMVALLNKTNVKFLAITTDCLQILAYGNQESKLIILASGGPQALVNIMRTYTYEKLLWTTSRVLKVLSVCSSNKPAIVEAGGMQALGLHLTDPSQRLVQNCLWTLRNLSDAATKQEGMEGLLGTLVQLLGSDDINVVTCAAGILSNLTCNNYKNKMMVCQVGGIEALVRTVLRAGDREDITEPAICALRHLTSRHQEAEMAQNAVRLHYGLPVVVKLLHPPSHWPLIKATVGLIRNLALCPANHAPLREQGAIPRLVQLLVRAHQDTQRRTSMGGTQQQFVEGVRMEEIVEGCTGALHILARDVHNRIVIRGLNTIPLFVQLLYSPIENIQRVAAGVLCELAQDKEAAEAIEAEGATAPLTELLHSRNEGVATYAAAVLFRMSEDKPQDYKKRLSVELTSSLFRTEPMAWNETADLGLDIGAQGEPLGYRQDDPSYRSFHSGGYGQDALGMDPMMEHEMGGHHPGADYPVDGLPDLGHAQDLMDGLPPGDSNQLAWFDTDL
Assay: Fluorescence polarization IC50 (beta-catenin / 5FAM-TCF4 10-53 competition)
Type: binding
Settings: fluorescence polarization; read-out: beta-Catenin FP IC50

| Compound | IC50 [nM] |
| --- | --- |
| CC(=O)N1CCC[C@]12CC=CCCCC1(CCCC=CCCCOC(=O)N3CC[C@@](C(=O)N[C@@H](Cc4ccsc4)C(=O)N[C@@H](Cc4csc5ccccc45)C(=O)N[C@@H](CCC(N)=O)C(N)=O)(C3)NC(=O)[C@H](Cn3cc(CN4CCS(=O)(=O)CC4)nn3)NC(=O)[C@H](Cc3ccccc3)NC(=O)[C@H](C)NC(=O)[C@H](C)NC(=O)[C@H](CN(CC(=O)O)CC(F)(F)F)NC(=O)[C@H](CC(=O)O)NC1=O)NC(=O)[C@H](CC(C)(C)C)NC(=O)[C@H](CC(=O)O)NC2=O (stereo partly drawn) [I-1869, Ac-PL3-Asp-Npg-B5-Asp-TfeGA-Ala-Ala-Phe-[SO2MorphCH2]TriAzDap-PyrS2-3Thi-BztA-Gln-NH2] | 12 |
| CC(=O)N1CCC[C@]12CC=CCCCC1(CCCC=CCCCOC(=O)N3CC[C@@](C(=O)N[C@@H](Cc4ccsc4)C(=O)N[C@@H](Cc4cccc5ccccc45)C(=O)N[C@@H](CCC(N)=O)C(N)=O)(C3)NC(=O)[C@H](CC(N)=O)NC(=O)[C@H](Cc3ccccc3)NC(=O)[C@H](C)NC(=O)[C@H](C)NC(=O)[C@H]([C@@H](C)O)NC(=O)[C@H](CC(N)=O)NC1=O)NC(=O)[C@H](CC(C)(C)C)NC(=O)[C@H](CC(=O)O)NC2=O (stereo partly drawn) [I-1870, Ac-PL3-Asp-Npg-B5-Asn-Thr-Ala-Ala-Phe-Asn-PyrS2-3Thi-1NapA-Gln-NH2] | 1520 |
| CC(=O)N1CCC[C@]12CC=CCCCC1(CCCC=CCCCOC(=O)N3CC[C@@](C(=O)N[C@@H](Cc4ccsc4)C(=O)N[C@@H](Cc4cccc5ccccc45)C(=O)N[C@@H](CCC(N)=O)C(N)=O)(C3)NC(=O)[C@H](CC(N)=O)NC(=O)[C@H](Cc3ccccc3)NC(=O)[C@H](C)NC(=O)[C@H](C)NC(=O)[C@H]([C@@H](C)O)NC(=O)[C@H](CC(N)=O)NC1=O)NC(=O)[C@H](CC(C)(C)C)NC(=O)[C@H](CC(=O)O)NC2=O (stereo partly drawn) [I-1871, Ac-PL3-Asp-Npg-B5-Asn-Thr-Ala-Ala-Phe-Asn-PyrS2-3Thi-1NapA-Gln-NH2] | 1770 |
| CC(=O)N1CCC[C@]12CC=CCCCC1(CCCC=CCCCOC(=O)N3CC[C@@](C(=O)N[C@@H](Cc4ccsc4)C(=O)N[C@@H](Cc4ccc5ccccc5c4)C(=O)N[C@@H](CCC(N)=O)C(N)=O)(C3)NC(=O)[C@H](CC(N)=O)NC(=O)[C@H](Cc3ccccc3)NC(=O)[C@H](C)NC(=O)[C@H](C)NC(=O)[C@H]([C@@H](C)O)NC(=O)[C@H](CC(N)=O)NC1=O)NC(=O)[C@H](CC(C)(C)C)NC(=O)[C@H](CC(=O)O)NC2=O (stereo partly drawn) [I-1873, Ac-PL3-Asp-Npg-B5-Asn-Thr-Ala-Ala-Phe-Asn-PyrS2-3Thi-2NapA-Gln-NH2] | 1480 |

Further compounds by falling IC50, results first:

| IC50 [nM] | Compound |
| --- | --- |
| 12 | CC(=O)N1CCC[C@]12CC=CCCCC1(CCCC=CCCCOC(=O)N3CC[C@@](C(=O)N[C@@H](Cc4ccsc4)C(=O)N[C@@H](Cc4csc5ccccc45)C(=O)N[C@@H](CCC(N)=O)C(N)=O)(C3)NC(=O)[C@H](Cn3cc(CN4CCS(=O)(=O)CC4)nn3)NC(=O)[C@H](Cc3ccccc3)NC(=O)[C@H](C)NC(=O)[C@H](C)NC(=O)[C@H](CN(CC(=O)O)CC(F)(F)F)NC(=O)[C@H](CC(=O)O)NC1=O)NC(=O)[C@H](CC(C)(C)C)NC(=O)[C@H](CC(=O)O)NC2=O (stereo partly drawn) [I-1868, Ac-PL3-Asp-Npg-B5-Asp-TfeGA-Ala-Ala-Phe-[SO2MorphCH2]TriAzDap-PyrS2-3Thi-BztA-Gln-NH2] |
| 10 | CC(=O)N1CCC[C@]12CC=CCCCC1(CCCC=CCCCOC(=O)N3CC[C@@](C(=O)N[C@@H](Cc4ccsc4)C(=O)N[C@@H](Cc4csc5ccccc45)C(=O)N[C@@H](CCC(N)=O)C(N)=O)(C3)NC(=O)[C@H](Cn3cc(CN4CCNCC4)nn3)NC(=O)[C@H](Cc3ccccc3)NC(=O)[C@H](C)NC(=O)[C@H](C)NC(=O)[C@H](CN(CC(=O)O)CC(F)(F)F)NC(=O)[C@H](CC(=O)O)NC1=O)NC(=O)[C@H](CC(C)(C)C)NC(=O)[C@H](CC(=O)O)NC2=O (stereo partly drawn) [I-1863, Ac-PL3-Asp-Npg-B5-Asp-TfeGA-Ala-Ala-Phe-[CH2Ppz]TriAzDap-PyrS2-3Thi-BztA-Gln-NH2] |
